The text below walks through data of US20250326748A1, “COMPOUNDS AND METHODS FOR MODULATING SPLICING” (REMIX THERAPEUTICS INC., priority 2022, published 2025).

The test deals with HiBiT-tagged MYB protein. Put plainly: HiBiT protein abundance assay, MYB (K562 HiBiT knock-in). The test is classed as cell-based, human. The conditions noted are these: HiBiT knock-in cells, 24 hours. Put shortly:
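Endogenously HiBiT-tagged K562 knock-in lines treated 24 h at 37 °C with 10-point 3-fold dilutions (top 10 μM final, DMSO ≤0.25%) in IMDM+1% FBS. Lytic Nano-Glo luminescence normalized to DMSO and unmodified K562 controls; four-parameter fit gives 50%-abundance concentration (IC50).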

Counter-ions that a name gives are not always drawn.

For the compound `CN1CCC[C@@H]2CN(c3cnc4nc(-c5cc6cn(C)nc6c(F)c5O)cc(Cl)c4c3)C[C@@H]21` [Compound 303], the IC50 was in the range of 100 to 1000 nM.

`CN1CCC[C@H]2CN(c3cnc4nc(-c5cc6cn(C)nc6c(F)c5O)cc(Cl)c4c3)C[C@H]21` [Compound 304] gave an IC50 of 100 to 1000 nM. As to `C[C@@H]1CN(c2cnc3nc(-c4cc5cn(C)nc5c(F)c4O)cc(C4CC4)c3c2)C[C@H](C)N1` [Compound 305, 5-{4-cyclopropyl-6-[(3R,5S)-3,5-dimethylpiperazin-1-yl]-1,8-naphthyridin-2-yl}-7-fluoro-2-methylindazol-6-ol], the IC50 is 100 to 1000 nM. For the compound `CCN[C@@H]1CCN(c2cnc3nc(-c4cc5cn(C)nc5cc4O)ccc3c2)C1` [Compound 310, 5-{6-[(3R)-3-(ethylamino)468pyrrolidine-1-yl]-1,8-naphthyridin-2-yl}-2-methylindazol-6-ol hydrochloride], the half-inhibitory concentration (IC50) is < 100 nM. `CCN[C@H]1CCN(c2cnc3nc(-c4cc5cn(C)nc5cc4O)ccc3c2)C1` [Compound 311, 5-{6-[(3S)-3-(ethylamino)pyrrolidin-1-yl]-1,8-naphthyridin-2-yl}-2-methylindazol-6-ol hydrochloride] showed an IC50 of 100 to 1000 nM. Compound `Cn1cc2cc(-c3ccc4cc(N5CC[C@@H](NCC6CC6)C5)cnc4n3)c(O)cc2n1` [Compound 313] gave a 50% inhibitory concentration (IC50) of 100 to 1000 nM. In the case of `Cn1cc2cc(-c3ccc4cc(N5CC[C@H](NCC6CC6)C5)cnc4n3)c(O)cc2n1` [Compound 314], the half-maximal inhibitory concentration (IC50) lay within 100 to 1000 nM.

As for `CN(C)C1CCN(c2cnc3nc(-c4cc5cn(C)nc5cc4O)ccc3c2)CC1` [Compound 316], the half-inhibitory concentration (IC50) was in the range of 100 to 1000 nM. For the compound `CCN[C@@H]1CCN(c2cnc3nc(-c4cc5cn(C)nc5cc4O)cc(Cl)c3c2)C1` [Compound 317], the IC50 is < 100 nM. Regarding `CCN[C@H]1CCN(c2cnc3nc(-c4cc5cn(C)nc5cc4O)cc(Cl)c3c2)C1` [Compound 318], the 50% inhibitory concentration (IC50) is < 100 nM.

With `C[C@@H]1CN(c2cnc3nc(-c4ccc5nn(C)cc5c4)cc(Cl)c3c2)C[C@H](C)N1` [Compound 320, 4-chloro-6-[(3R,5S)-3,5-dimethylpiperazin-1-yl]-2-(2-methylindazol-5-yl)-1,8-naphthyridine], the half-maximal inhibitory concentration (IC50) was 1000 to 10000 nM. Consider `C[C@@H]1CN(c2cnc3nc(-c4cc(C#N)c5nn(C)cc5c4)cc(Cl)c3c2)C[C@H](C)N1` [Compound 325, 5-(4-chloro-6-((3R,5S)-3,5-dimethylpiperazin-1-yl)-1,8-naphthyridin-2-yl)-2-methyl-2H-indazole-7-carbonitrile 2,2,2-trifluoroacetate], for which the IC50 fell in the range of 100 to 1000 nM.

Compound `Cc1cn2nc(-c3ccc4cc(N5C[C@@H](C)N[C@@H](C)C5)cnc4n3)cc(C)c2n1` [Compound 330] registered a concentration for half-maximal inhibition (IC50) of 100 to 1000 nM. With `Cc1cn2nc(-c3cc(Cl)c4cc(N5C[C@@H](C)N[C@@H](C)C5)cnc4n3)cc(C)c2n1` [Compound 335, 4-chloro-2-{2,8-dimethylimidazo[1,2-b]478pyridazine-6-yl}-6-[(3R,5S)-3,5-dimethylpiperazin-1-yl]-1,8-naphthyridine], the IC50 was 100 to 1000 nM. The value for `Cc1cn2nc(-c3cc(Cl)c4cc(N5C[C@H](C)N[C@@H](C)C5)cnc4n3)cc(C)c2n1` [Compound 336] was < 100 nM; that for `CN[C@H]1CCN(c2cnc3nc(-c4cc(C)c5nc(C)cn5n4)cc(Cl)c3c2)C1` [Compound 340] was < 100 nM; that for `CN[C@@H]1CCN(c2cnc3nc(-c4cc(C)c5nc(C)cn5n4)cc(Cl)c3c2)C1` [Compound 341] was < 100 nM. As to `C[C@@H]1CN(c2cnc3nc(-c4cc5cn(C)nc5cc4O)ccc3c2)C[C@H](C)N1` [Compound 343], the IC50 lay within 100 to 1000 nM. For the compound `Cc1cn2nc(-c3cc(Cl)c4cc(N5CCC(N(C)C)CC5)cnc4n3)cc(C)c2n1` [Compound 348], the IC50 was < 100 nM. On to `Cc1cn2nc(-c3cc(Cl)c4cc(N5CCC(N6CCC6)CC5)cnc4n3)cc(C)c2n1` [Compound 349], for which the half-inhibitory concentration (IC50) was < 100 nM. `Cc1cn2cc(-c3ccc4cc(N5C[C@@H](C)N[C@@H](C)C5)cnc4n3)cc(F)c2n1` [Compound 350] registered a half-maximal inhibitory concentration (IC50) of 100 to 1000 nM. Take `Cc1c(O)c(-c2cc(Cl)c3cc(N4CCNC5(CC5)C4)cnc3n2)cc2cn(C)nc12` [Compound 381]: the IC50 was < 100 nM. The figure for `Cc1cn2nc(-c3ccc4c(Cl)c(N5C[C@H](C)N[C@@H](C)C5)cnc4n3)cc(C)c2n1` [Compound 393, 5-chloro-2-{2,8-dimethylimidazo[1,2-b]pyridazin-6-yl}-6-[(3S,5S)-3,5-dimethylpiperazin-1-yl]-1,8-naphthyridine] is < 100 nM.
